According to the NIST ThermoML archive (doi:10.1007/s10765-005-5567-5):
Numbers after ± are expanded uncertainties.

Conditions: Liquid; for thermal conductivity: Coaxial cylinder method; for viscosity: Capillary tube (Ostwald / Ubbelohde) method

O [water]
thermal conductivity (298.3 K, 100 kPa): 0.607 ± 0.017 W/m/K
thermal conductivity (298.3 K, 10000 kPa): 0.613 ± 0.017 W/m/K
thermal conductivity (298.3 K, 30000 kPa): 0.623 ± 0.018 W/m/K
viscosity (299.76 K, 100 kPa): 0.8591 ± 0.027 mPa·s
viscosity (299.76 K, 10000 kPa): 0.8561 ± 0.027 mPa·s
viscosity (299.76 K, 30000 kPa): 0.8551 ± 0.027 mPa·s
thermal conductivity (313.1 K, 100 kPa): 0.629 ± 0.018 W/m/K
thermal conductivity (313.1 K, 10000 kPa): 0.634 ± 0.018 W/m/K
thermal conductivity (313.1 K, 30000 kPa): 0.644 ± 0.018 W/m/K
viscosity (315.62 K, 100 kPa): 0.6245 ± 0.02 mPa·s
viscosity (315.62 K, 10000 kPa): 0.6234 ± 0.02 mPa·s
viscosity (315.62 K, 30000 kPa): 0.6292 ± 0.02 mPa·s
viscosity (328.37 K, 100 kPa): 0.5 ± 0.016 mPa·s
viscosity (328.37 K, 10000 kPa): 0.503 ± 0.016 mPa·s
viscosity (328.37 K, 30000 kPa): 0.5071 ± 0.016 mPa·s
thermal conductivity (333.3 K, 100 kPa): 0.651 ± 0.018 W/m/K
thermal conductivity (333.3 K, 10000 kPa): 0.656 ± 0.018 W/m/K
thermal conductivity (333.3 K, 30000 kPa): 0.666 ± 0.019 W/m/K
viscosity (347.95 K, 100 kPa): 0.3761 ± 0.012 mPa·s
viscosity (347.95 K, 10000 kPa): 0.3803 ± 0.012 mPa·s
viscosity (347.95 K, 30000 kPa): 0.3872 ± 0.012 mPa·s
thermal conductivity (352.9 K, 100 kPa): 0.667 ± 0.019 W/m/K
thermal conductivity (352.9 K, 10000 kPa): 0.672 ± 0.019 W/m/K
thermal conductivity (352.9 K, 30000 kPa): 0.682 ± 0.019 W/m/K
thermal conductivity (363.4 K, 100 kPa): 0.673 ± 0.019 W/m/K
thermal conductivity (363.4 K, 10000 kPa): 0.678 ± 0.019 W/m/K
thermal conductivity (363.4 K, 30000 kPa): 0.689 ± 0.019 W/m/K
viscosity (375.85 K, 10000 kPa): 0.2772 ± 0.0087 mPa·s
viscosity (375.85 K, 30000 kPa): 0.2833 ± 0.0089 mPa·s
thermal conductivity (393.1 K, 10000 kPa): 0.689 ± 0.019 W/m/K
thermal conductivity (393.1 K, 30000 kPa): 0.702 ± 0.02 W/m/K
viscosity (403.95 K, 10000 kPa): 0.2131 ± 0.0067 mPa·s
viscosity (403.95 K, 30000 kPa): 0.2181 ± 0.0068 mPa·s
thermal conductivity (423.3 K, 10000 kPa): 0.691 ± 0.019 W/m/K
thermal conductivity (423.3 K, 30000 kPa): 0.704 ± 0.02 W/m/K
viscosity (431.43 K, 10000 kPa): 0.1738 ± 0.0054 mPa·s
viscosity (431.43 K, 30000 kPa): 0.1786 ± 0.0056 mPa·s
thermal conductivity (448.7 K, 10000 kPa): 0.685 ± 0.019 W/m/K
thermal conductivity (448.7 K, 30000 kPa): 0.699 ± 0.02 W/m/K
thermal conductivity (474.3 K, 10000 kPa): 0.672 ± 0.019 W/m/K
thermal conductivity (474.3 K, 30000 kPa): 0.689 ± 0.019 W/m/K
viscosity (476.4 K, 10000 kPa): 0.1326 ± 0.0042 mPa·s
viscosity (476.4 K, 30000 kPa): 0.1375 ± 0.0043 mPa·s
thermal conductivity (499.3 K, 10000 kPa): 0.652 ± 0.018 W/m/K
thermal conductivity (499.3 K, 30000 kPa): 0.672 ± 0.019 W/m/K
viscosity (502.75 K, 10000 kPa): 0.1189 ± 0.0038 mPa·s
viscosity (502.75 K, 30000 kPa): 0.1239 ± 0.0039 mPa·s
thermal conductivity (523.4 K, 10000 kPa): 0.624 ± 0.018 W/m/K
thermal conductivity (523.4 K, 30000 kPa): 0.649 ± 0.018 W/m/K
viscosity (524.75 K, 10000 kPa): 0.1081 ± 0.0035 mPa·s
viscosity (524.75 K, 30000 kPa): 0.1132 ± 0.0036 mPa·s
thermal conductivity (548.4 K, 10000 kPa): 0.591 ± 0.017 W/m/K
thermal conductivity (548.4 K, 30000 kPa): 0.622 ± 0.018 W/m/K
viscosity (549.5 K, 10000 kPa): 0.0961 ± 0.0031 mPa·s
viscosity (549.5 K, 30000 kPa): 0.1011 ± 0.0032 mPa·s
thermal conductivity (573.5 K, 10000 kPa): 0.547 ± 0.015 W/m/K
thermal conductivity (573.5 K, 30000 kPa): 0.588 ± 0.017 W/m/K
viscosity (574.54 K, 10000 kPa): 0.0851 ± 0.0028 mPa·s
viscosity (574.54 K, 30000 kPa): 0.0918 ± 0.003 mPa·s
